We go through six molecules from patent publication US6251882A, “Alkyl ketones as potent anti-cancer agents” (Parker Hughes Institute, priority 1999, dated 2001).

Residues, ends and D or L forms follow the SMILES beside them. *: point of attachment. Farnesyl = CC(C)=CCC/C(C)=C/CC/C(C)=C/C*; Boc = CC(C)(C)OC(=O)*; CHN2 = [N-]=[N+]=C* Bounds are passed on as bounds.

Assay [1] deals with BT-20 (breast cancer). As to the kind of experiment: MTT cytotoxicity assay, BT-20. It is filed as cell-based. The settings on record: Homo sapiens, 24-36 hours at 37° C., 0.1 to 250 μM. The protocol: (§1) Cytotoxicity of various compounds against tumor cells was performed using the MTT (3-[4,5-[…]]-2,5-diphenyl tetrazolium bromide) assay (Boehringer Mannheim Corp., Indianapolis, Ind.). Unless otherwise specified, all cell lines were obtained from the American Type Culture Collection (ATCC). Briefly, exponentially growing cells were seeded into a 96-well plate at a density of 2.5×10^4 cells/well and incubated for 36 hours at 37° C. prior to drug exposure. On the day of treatment, culture medium was carefully aspirated from the wells and replaced with fresh medium containing the indicated compound at concentrations ranging from 0.1 to 250 μM. Triplicate wells were used for each treatment.
(§2) Human leukemic cell lines (NALM-6, MOLT-3) glioblastoma cells (U373) and human breast tumor cell lines (BT20 and MDA-MB-231) were obtained from the American Type Culture Collection and maintained as a continuous cell line in Dulbecco's modified Eagles's medium supplemented with 10% fetal bovine serum and antibiotics.
(§3) The cells were incubated with the various compounds for 24-36 hours at 37° C. in a humidified 5% CO2 atmosphere. To each well, 10 μl of MTT (0.5 mg/ml final concentration) was added and the plates were incubated at 37° C. for 4 hours to allow MTT to form formazan crystals by reacting with metabolically active cells. The formazan crystals were solubilized overnight at 37° C. in a solution containing 10% SDS in 0.01 M HCl. The absorbence of each well was measured in a microplate reader (Labsystems) at 540 nm and a reference wavelength of […]. To translate the OD540 values into the number of live cells in each well, the OD540 values were compared to those on standard OD540 --versus--cell number curves generated for each cell line. The percent survival was calculated using the formula: [formula]
(§4) The IC50 values were calculated by non-linear regression analysis and are shown below in Tables 1-6.
(In general: Tetrazolium assays rely on reduction of a dye to a coloured formazan, in cell work by metabolically active cells.)

Assay [2] deals with Nalm-6 (B-lineage ALL). As to the kind of experiment: MTT cytotoxicity assay, Nalm-6. It is filed as cell-based. As to conditions: Homo sapiens, 24-36 hours at 37° C., 0.1 to 250 μM. As to the method:
as §1, §2, §3, §4

The test system of assay [3] is U-373 (glioblastoma). As to the kind of experiment: MTT cytotoxicity assay, U-373. The assay is classed as cell-based. As to conditions: Homo sapiens, U373 MG, 24-36 hours at 37° C., 0.1 to 250 μM. As to the method: as §1, §2, §3, §4
Assay [4] deals with Molt-3 (T-lineage ALL). As to the kind of experiment: MTT cytotoxicity assay, Molt-3. It is filed as cell-based, human. As to conditions: Homo sapiens, MOLT-3, MTT, 24-36 hours at 37° C., 0.1 to 250 μM. The protocol: as §1, §2, §3, §4
The test system of assay [5] is PC-3 (prostate cancer). As to the kind of experiment: MTT cytotoxicity assay, PC-3. It is filed as cell-based. The settings on record: 24-36 hours at 37° C., 0.1 to 250 μM. As to the method: as §1, §3, §4

As for `CC(C)=CCC/C(C)=C/CC/C(C)=C/CSC[C@H](NC(=O)CNC(=O)OC(C)(C)C)C(=O)C=[N+]=[N-]` [HI-401, N-Boc-Gly-S-trans-trans-farnesyl-Cys diazomethyl ketone] (Boc-Gly-Cys(Farnesyl)-CHN2), the concentration for half-maximal inhibition (IC50) (in general, the concentration that gives 50% inhibition) in assay [1] is 95.1 µM; in assay [2] it was 51.3 µM; in assay [3], above 100 µM; in assay [4] it was 84.5 µM; in assay [5], 90.6 µM.
Take `C=CCSC[C@H](NC(C)=O)C(=O)CCl` [HI-419, N-Ac-S-allyl-cysteine chloromethyl ketone]: the half-inhibitory concentration (IC50) in assay [1] was 55.7 µM; in assay [2], 4.3 µM; in assay [3], 56.7 µM; in assay [4], 7.3 µM; in assay [5], above 100 µM.
Regarding `CCCCCCCCCCCCSC[C@H](NC(C)=O)C(=O)CBr` [HI-488, N-Ac-S-dodecyl-cysteine bromomethyl ketone], the concentration for half-maximal inhibition (IC50) in assay [1] was 33.8 µM; in assay [2], 1.3 µM; in assay [3], 22.5 µM; in assay [4], 3.19 µM; in assay [5], 39.6 µM.
For the molecule `CCCCCCCCCCCCOC[C@H](NC(C)=O)C(=O)CCl` [HI-489, N-Ac-O-dodecyl-serine chloromethyl ketone], the half-inhibitory concentration (IC50) is above 100 µM in assay [1]; 3.8 µM in assay [2]; above 100 µM in assay [3]; 15.3 µM in assay [4]; above 100 µM in assay [5].
Regarding `CCCCCCCCCCCCSC[C@H](NC(=O)C(F)(F)F)C(=O)CCl` [HI-490, N-Trifluoroacetyl-S-dodecyl-cysteine chloromethyl ketone], the IC50 in assay [1] is above 100 µM; in assay [2], 32.6 µM; in assay [3], above 100 µM; in assay [4] it was 41.3 µM; in assay [5], above 100 µM.
As for `CCCCCCCCCCCCSC[C@H](NC(=O)c1ccccc1)C(=O)CCl` [HI-491, N-Benzoyl-S-dodecyl-cysteine chloromethyl ketone], the IC50 in assay [1] was above 100 µM; in assay [2], 5.4 µM; in assay [3], above 100 µM; in assay [4] it was 6.5 µM; in assay [5] it was 52.1 µM.
